Experimental data published in patent US20130096088A1, “Inhibitors of Protein Tyrosine Kinase Activity” (METHYLGENE INC., priority 2011, published 2013).

What was measured:
VEGFR2 (KDR) = target: T1, VEGFR2 (KDR) (Homo sapiens, UniProt P35968); assay: In vitro receptor tyrosine kinase assay (VEGF receptor KDR), DELFIA; format: biochemical; conditions: recombinant GST-VEGFR2 806-1356, ATP 0.6 uM; read-out: VEGFR IC50UM
T1 construct: made in house; host or cells: Sf9 cells (Spodoptera frugiperda), baculovirus
T1 sequence (P35968 806-1356): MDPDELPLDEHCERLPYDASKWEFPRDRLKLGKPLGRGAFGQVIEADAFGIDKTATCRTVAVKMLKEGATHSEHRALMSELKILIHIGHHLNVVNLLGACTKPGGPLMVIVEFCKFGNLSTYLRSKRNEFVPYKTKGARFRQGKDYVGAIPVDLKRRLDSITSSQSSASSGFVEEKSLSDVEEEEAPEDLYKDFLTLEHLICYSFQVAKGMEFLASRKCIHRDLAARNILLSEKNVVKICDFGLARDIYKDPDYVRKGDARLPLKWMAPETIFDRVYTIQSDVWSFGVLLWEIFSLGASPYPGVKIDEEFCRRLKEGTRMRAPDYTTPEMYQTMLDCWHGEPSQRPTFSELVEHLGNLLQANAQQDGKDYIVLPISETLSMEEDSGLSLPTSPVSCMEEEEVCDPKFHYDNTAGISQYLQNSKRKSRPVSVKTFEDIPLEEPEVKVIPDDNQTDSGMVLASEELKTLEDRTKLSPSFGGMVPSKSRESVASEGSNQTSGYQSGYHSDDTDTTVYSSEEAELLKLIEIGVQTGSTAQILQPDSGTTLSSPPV
Text: In Vitro Receptor Tyrosine Kinase Assay (VEGF Receptor KDR)
This test measures the ability of compounds to inhibit the enzymatic activity of recombinant human VEGF receptor enzymatic activity.
A 1.6-kb cDNA corresponding to the catalytic domain of VEGFR2 (KDR) (Genbank accession number AF035121 amino acid 806 to 1356) is cloned into the Pst I site of the pDEST20 Gateway vector (Invitrogen) for the production of a GST-tagged version of that enzyme. This construct is used to generate recombinant baculovirus using the Bac-to-Bac™ system according to the manufacturer's instructions (Invitrogen).
The GST-VEGFR2806-1356 protein is expressed in Sf9 cells (Spodoptera frugiperda) upon infection with recombinant baculovirus construct. Briefly, Sf9 cells grown in suspension and maintained in serum-free medium (Sf900 II supplemented with gentamycin) at a cell density of about 2×10^6 cells/ml are infected with the above-mentioned viruses at a multiplicity of infection (MOI) of 0.1 during 72 hours at 27° C. with agitation at 120 rpm on a rotary shaker. Infected cells are harvested by centrifugation at 398 g for 15 min. Cell pellets are frozen at −80° C. until purification is performed.
All steps described in cell extraction and purification are performed at 4° C. Frozen Sf9 cell pellets infected with the GST-VEGFR2806-1356 recombinant baculovirus are thawed and gently resuspended in Buffer A (PBS pH 7.3 supplemented with 1 μg/ml pepstatin, 2 μg/ml Aprotinin and leupeptin, 50 μg/ml PMSF, 50 μg/ml TLCK and 10 μM E64 and 0.5 mM DTT) using 3 ml of buffer per gram of cells. Suspension is Dounce homogenized and 1% Triton X-100 is added to the homogenate after which it is centrifuged at 22500 g, 30 min., 4° C. The supernatant (cell extract) is used as starting material for purification of GST-VEGFR2806-1356.
The supernatant is loaded onto a GST-agarose column (Sigma) equilibrated with PBS pH 7.3. Following a four column volume (CV) wash with PBS pH 7.3+1% Triton X-100 and 4 CV wash with buffer B (50 mM Tris pH 8.0, 20% glycerol and 100 mM NaCl), bound proteins are step eluted with 5 CV of buffer B supplemented with 5 mM DTT and 15 mM glutathion. GST-VEGFR2806-1356 enriched fractions from this chromatography step are pooled based on U.V. trace i.e. fractions with high O.D.280. Final GST-VEGFR2806-1356 protein preparations concentrations are about 0.7 mg/ml with purity approximating 70%. Purified GST-VEGFR2806-1356 protein stocks are aliquoted and frozen at −80° C. prior to use in enzymatic assay.
Inhibition of VEGFR/KDR is measured in a DELFIA™ assay (Perkin Elmer). The substrate poly(Glu4,Tyr) is immobilized onto black high-binding polystyrene 96-well plates. The coated plates are washed and stored at 4° C. During the assay, the enzyme is pre-incubated with inhibitor and Mg-ATP on ice in polypropylene 96-well plates for 4 minutes, and then transferred to the coated plates. The subsequent kinase reaction takes place at 30° C. for 10-30 minutes. ATP concentrations in the assay are 0.6 uM for VEGFR/KDR (2× the Km). Enzyme concentration is 5 nM. After incubation, the kinase reactions are quenched with EDTA and the plates are washed. Phosphorylated product is detected by incubation with Europium-labeled anti-phosphotyrosine MoAb. After washing the plates, bound MoAb is detected by time-resolved fluorescence in a Gemini SpectraMax reader (Molecular Devices). Compounds are evaluated over a range of concentrations, and IC50 values (concentration of compounds giving 50% inhibition of enzymatic activity) are determined.

[1] = tested on: laser-induced choroidal neovascularization (CNV); assay: In vivo choroidal neovascularization (CNV) model; design: species or system rat; conditions: Rattus norvegicus, 240 h; Brown-Norway rats, dose 3 nmol/eye, injection on Day 3, CNV area on Day 10; read-out: Inhibition of CNV Progression (%)
Text: In Vivo Choroidal Neovascularization (CNV) Model This test measures the capacity of compounds to inhibit CNV progression. CNV is the main cause of severe vision loss in patients suffering from age-related macular degeneration (AMD). Male Brown-Norway rats (Charles River Japan Co., Ltd.) were used in these studies. Rats were anesthetized by intraperitoneal injection of pentobarbital, and the right pupil was dilated with 0.5% tropicamide and 0.5% phenylephrine hydrochloride. The right eye received 6 laser burns between retinal vessels using a slit lamp delivery system of Green laser Photocoagulator (Nidex Inc., Japan), and microscope slide glass with 10 mg/mL hyaluronic acid (SIGMA) used as a contact lens. The laser power was 200 mW for 0.1 second and spot diameter was 100 μm. At the time of laser burn, bubble production was observed; which is an indication of rupture of Bruch's membrane which is important for CNV generation. After animals were anesthetized, and the right pupil dilated (as mentioned above), the right eye of the animal received the compound or vehicle by an injection (3 μL/eye) at doses of 3 or 10 nmol/eye on Day 3. The compounds were dissolved or suspended in CBS, PBS, or other adequate vehicles before injection. On Day 10, the animals were anesthetized with ether, and high molecular weight fluorescein isothiocyanate (FITC)-dextran (SIGMA, 2×10^6 MW) was injected via a tail vein (20 mg/rat). About 30 min after FITC-dextran injection, animals were euthanized by ether or carbon dioxide, and the eyes were removed and fixed with 10% formaline neutral buffer solution. After over 1 hour of fixation, RPE-choroid-sclera flat mounts were obtained by removing cornea, lens and retina from the eyeballs. The flat mounts were mounted in 50% glycerol on a microscope slide, and the portion burned by laser was photographed using a fluorescence microscope (Nikon Corporation, excitation filter: 465-495 nm, absorption filter: 515-555 nm). The CNV area was obtained by measurement of hyper-fluorescence area observed on the photograph using Scion image. The average CNV area of 6 burns was used as an individual value of CNV area, and the average CNV area of compound treated group was compared with that of the vehicle-treated group.

| SMILES | IC50 (VEGFR2 (KDR)) | inhibition in vivo at 3 nmol/eye [1] |
| --- | --- | --- |
| COCCOCCOCCOCCN(C1CCN(Cc2ccc(-c3cc4nccc(Oc5ccc(NC(=O)NC6CC6)cc5F)c4s3)nc2)CC1)S(C)(=O)=O [Compound 26] | 13 nM |  |
| CCNC(=O)N(CCOCCOCCOCCOC)C1CCN(Cc2ccc(-c3cc4nccc(Oc5ccc(NC(=O)NC6CC6)cc5F)c4s3)nc2)CC1 [Compound 23, 1-(4-(2-(5-((4-Ethylaminocarbonyl-(2,5,8,11-tetraoxamidecan-13-ylamino)piperidin-1-yl)methyl)pyridin-2-yl)thieno[3,2-b]pyridin-7-yloxy)-3-fluorophenyl)-3-cyclopropylurea] | 18 nM | 44.2% |
| COCCOCCOCCOCCOc1cccc(NCc2ccc(-c3cc4nccc(Oc5ccc(NC(=O)NC6CC6)cc5F)c4s3)nc2)c1 [Compound 40] | 24 nM |  |
| COCCOCCOCCOCCOCCn1cc(-c2cc3nccc(Oc4ccc(NC(=O)NC5CC5)cc4F)c3s2)nn1 [Compound 33, 1-(4-(2-(1-(2,5,8,11,14-Pentaoxahexadecan-16-yl)-1H-1,2,3-triazol-4-yl)thieno[3,2-b]pyridin-7-yloxy)-3-fluorophenyl)-3-cyclopropylurea] | 107 nM |  |
| COCCOCCOCCOCCN(C(=O)CO)C1CCN(Cc2ccc(-c3cc4nccc(Oc5ccc(NC(=O)NC6CC6)cc5F)c4s3)nc2)CC1 [Compound 24] | 15 nM | 28.9% |
| COCCOCCOCCOCCOc1ccccc1NCc1ccc(-c2cc3nccc(Oc4ccc(NC(=O)NC5CC5)cc4F)c3s2)nc1 [Compound 38, 1-(4-(2-(5-((2-(2,5,8,11-Tetraoxamidecan-13-yloxy)phenylamino)methyl)pyridin-2-yl)thieno[3,2-b]pyridin-7-yloxy)-3-fluorophenyl)-3-cyclopropylurea] | 24 nM |  |
| CC(C)[C@H](NC(=O)CN)C(=O)OCC(=O)N1CCN(Cc2ccc(-c3cc4nccc(Oc5ccc(NC(=O)NC6CC6)cc5F)c4s3)nc2)CC1 [Compound 13] | 10 nM | 41.6% |
| CC(C)[C@H](N)C(=O)N[C@H](C(=O)OCC(=O)N1CCN(Cc2ccc(-c3cc4nccc(Oc5ccc(NC(=O)NC6CC6)cc5F)c4s3)nc2)CC1)C(C)C [Compound 12, (S)-2-(4-((6-(7-(4-(3-Cyclopropylureido)-2-fluorophenoxy)thieno[3,2-b]pyridin-2-yl)pyridin-3-yl)methyl)piperazin-1-yl)-2-oxoethyl 2-((S)-2-amino-3-methylbutanamido)-3-methylbutanoate] | 13 nM | 47% |
| COCCOCCOCCOCCN(C(=O)C(F)(F)F)C1CCN(Cc2ccc(-c3cc4nccc(Oc5ccc(NC(=O)NC6CC6)cc5F)c4s3)nc2)CC1 [Compound 25] | 53 nM | 20.9% |
| O=C(Nc1ccc(Oc2ccnc3cc(-c4ccc(CN5CCOCCOCCOCCOCCOCC5)cn4)sc23)c(F)c1)NC1CC1 [Compound 8, 1-(4-(2-(5-((1,4,7,10,13-Pentaoxa-16-azacyclooctadecan-16-yl)methyl)pyridin-2-yl)thieno[3,2-b]pyridin-7-yloxy)-3-fluorophenyl)-3-cyclopropylurea] | 13 nM |  |
| COCCOCCOCC(=O)N1CC(N(CC(=O)O)Cc2ccc(-c3cc4nccc(Oc5ccc(NC(=O)NC6CC6)cc5F)c4s3)nc2)C1 [Compound 45, 2-(((6-(7-(4-(3-Cyclopropylureido)-2-fluorophenoxy)thieno[3,2-b]pyridin-2-yl)pyridin-3-yl)methyl)(1-(2-(2-(2-methoxyethoxy)ethoxy)acetyl)azetidin-3-yl)amino)acetic acid] | 3 nM |  |

Now from value to compound, other results behind:

| IC50 (VEGFR2 (KDR)) | SMILES | inhibition in vivo at 3 nmol/eye [1] |
| --- | --- | --- |
| 6 nM | COCCOCCOCCOCCC(=O)OCC(=O)N1CCN(Cc2ccc(-c3cc4nccc(Oc5ccc(NC(=O)NC6CC6)cc5F)c4s3)nc2)CC1 [Compound 18] | 42.9% |
| 2 nM | COCCOCCOCCNC(=O)N1CCN(Cc2ccc(-c3cc4nccc(Oc5ccc(NC(=O)NC6CC6)cc5F)c4s3)nc2)CC1 [Compound 54, 4-((6-(7-(4-(3-Cyclopropylureido)-2-fluorophenoxy)thieno[3,2-b]pyridin-2-yl)pyridin-3-yl)methyl)-N-(2-(2-(2-methoxyethoxy)ethoxy)ethyl)piperazine-1-carboxamide] |  |
| 11 nM | COCCOCCOCCOCCC(=O)N1CCN(Cc2ccc(-c3cc4nccc(Oc5ccc(NC(=O)NC6CC6)cc5F)c4s3)nc2)CC1 [Compound 46, 1-(4-(2-(5-((4-2,5,8,11-Tetraoxatetradecanepiperazin-1-yl)methyl)pyridin-2-yl)thieno[3,2-b]pyridin-7-yloxy)-3-fluorophenyl)-3-cyclopropylurea] | 24.8% |
| 13 nM | COCCOCCOCCOCCNC1CCN(Cc2ccc(-c3cc4nccc(Oc5ccc(NC(=O)NC6CC6)cc5F)c4s3)nc2)CC1 [Compound 22, 1-(4-(2-(5-((4-(2,5,8,11-Tetraoxamidecan-13-ylamino)piperidin-1-yl)methyl)pyridin-2-yl)thieno[3,2-b]pyridin-7-yloxy)-3-fluorophenyl)-3-cyclopropylurea] |  |
| 2 nM | COCCOCCOCCOCCNC(=O)N1CCN(Cc2ccc(-c3cc4nccc(Oc5ccc(NC(=O)NC6CC6)cc5F)c4s3)nc2)CC1 [Compound 55] |  |
| 2 nM | COCCOCCOCCOCCOCCNC(=O)N1CCN(Cc2ccc(-c3cc4nccc(Oc5ccc(NC(=O)NC6CC6)cc5F)c4s3)nc2)CC1 [Compound 56] |  |
| 13 nM | COCCOCCOCCOCCOCCOC(=O)N1CCN(Cc2ccc(-c3cc4nccc(Oc5ccc(NC(=O)NC6CC6)cc5F)c4s3)nc2)CC1 [Compound 52] |  |
| 12 nM | COCCOCCOCCOCC(=O)N1CCN(Cc2ccc(-c3cc4nccc(Oc5ccc(NC(=O)NC6CC6)cc5F)c4s3)nc2)CC1 [Compound 47] |  |
| 13 nM | COCCOCCOCCOCCOCC(=O)N1CCN(Cc2ccc(-c3cc4nccc(Oc5ccc(NC(=O)NC6CC6)cc5F)c4s3)nc2)CC1 [Compound 48] |  |
| 20 nM | COCCOCCOCCOCCOCCC(=O)OCC(=O)N1CCN(Cc2ccc(-c3cc4nccc(Oc5ccc(NC(=O)NC6CC6)cc5F)c4s3)nc2)CC1 [Compound 19] |  |
